Here are results for twelve compounds from article PMC6523505, “Inhibition of Oncogenic Kinases: An In Vitro Validated Computational Approach Identified Potential Multi-Target Anticancer Compounds” (Biomolecules, 2019).

A word on the IC50: it is the point on the concentration scale where inhibition reaches its midpoint.

Test [1] deals with HeLa (human epithelial cervical cancer) cell line. Kind of test: MTT cytotoxicity assay. It counts as cell-based. To be noted: after 48 h of treatment, mean ± S.D. An excerpt: (§1) HeLa (human epithelial cervical cancer, ATCC CCL-2), HepG2 (human epithelial liver cancer, ATCC HB-8065) and Vero (monkey epithelial kidney […], ATCC CCL-81) cell lines were used to examine the selected virtual hit compounds’ anti-cancer activity. All cell lines were generously provided by the late Prof. Dr. M.H. Qazi, University of Lahore, Lahore, Pakistan. The test compounds were purchased via MolPort and cisplatin from Pharmedic (Pvt) Ltd., Lahore, Pakistan. Cell culture media, fetal calf serum (FCS), MTT (3-[[…]]-2,5-diphenyltetrazolium bromide), DMSO, antibiotic/antimycotic and Supplementary Materials were purchased from Thermo Fisher Scientific, Inc, (Waltham, MA, USA).
(§2) Cells were harvested at 80% confluence by treating the medium-free monolayer with trypsin-EDTA. Cell counts were performed with a hemocytometer, and cell viability was determined with trypan blue. The cell suspension was adjusted to a final concentration of […] in DMEM (Dulbecco’s modified Eagle medium) with 10% FCS. Cells were dispensed to tissue culture grade 96-well plates, with each microwell receiving 100 µL, i.e., 7000 cells per microwell. The plate was incubated at 37 °C for 12 h in 5% CO2 incubator. Stock solutions (10 mM) of the test compounds and positive control were prepared in DMSO. Test concentrations were prepared by diluting the stocks with the growth media. Test compound solutions were diluted from 100 µL to a final well volume of 200 µL. MTT reagent was prepared in phosphate-buffered saline (PBS) in a concentration of 5 mg/mL. After 48 h, 25 µL of MTT reagent was added to each microwell, followed by incubation for 5 h. MTT is reduced by metabolically active cells to insoluble purple formazan crystals by mitochondrial enzymes. The reduction of MTT is primarily due to glycolytic activity within the cell, and is dependent upon the presence of NADH and NADPH. The entire contents of each microwell were carefully pipetted out without disturbing the cells on the well floor. In order to solubilize the formazan crystals, 100 µL of DMSO was dispensed to each well. The absorbance was measured with the help of a Bio Rad PR 4100 microplate reader at a wavelength of 570 nm. Serial dilutions of cisplatin were used as a positive control, while the negative controls contained only the reagent, but not any drug. Percentage viability was calculated and dose–response curves were plotted using the percentage viability against the drug/test compound concentration (µM). Results represent mean ±SD of six readings: three determinations of two independent experiments.
(§3) These four compounds were subsequently tested for their cytotoxic effect on different cell lines. Cell viability assays on cancer cell lines HeLa and HepG2 and non-cancerous Vero cell line were performed using the lead compounds (Z21, Z88, F34, AF3) with doses ranging from 50 to 400 µM. Cisplatin was used as a positive control at dose levels of 1 µM, 10 µM, and 20 µM. Dose–response curves of all four inhibitors against the three cell lines show the moderate sensitivity of all cell line toward these inhibitors (Figure 6).
(In general: Formazan colour is commonly taken as a measure of viable cells.)

For test [2], the system named is Vero (monkey epithelial kidney) cell line. Kind of test: MTT cytotoxicity assay. Format: cell-based. To be noted: after 48 h of treatment, mean ± S.D.
Text: as §1, §2, §3

Test [3] has as its system HepG2 (human epithelial liver cancer) cell line. Kind of test: MTT cytotoxicity assay. It counts as cell-based. To be noted: after 48 h of treatment, mean ± S.D.
Text: as §1, §2, §3

A further test concerns the target cannabinoid CB1 receptor. Set-up: method as in PMID 17027269. To be noted: cited from earlier work.
Test [4] relates to VEGF, RET, MET, NTRKB, TIE2, AXL. Particulars: FDA-approved kinase inhibitor, against tested cell lines, no reference given; cited from earlier work.
Test [5] deals with BCR-ABL, SRC, KIT, PDGFR, EPH, CSK. To be noted: FDA-approved kinase inhibitor, against tested cell lines, no reference given; cited from earlier work.
The subject of test [6] is BCR-ABL, KIT, LCK, EPHA3, 8, DDR1, 2. To be noted: FDA-approved kinase inhibitor, against tested cell lines, no reference given; cited from earlier work.
The next test relates to PDGFR, VEGFR. To be noted: FDA-approved kinase inhibitor, against tested cell lines, no reference given; cited from earlier work.
In test [7] the test system is TIE2, PDGFR, RET, KIT, B-RAF. To be noted: FDA-approved kinase inhibitor, against tested cell lines, no reference given; cited from earlier work.
Test [8] concerns EGFR, VEGFR, RET, Tie-2, FGFR1. Particulars: FDA-approved kinase inhibitor, against tested cell lines, no reference given; cited from earlier work.

Consider `COc1ccc(C(=O)Oc2ccc3c(=O)c(Oc4ccc5ccccc5c4)coc3c2)cc1` [AF3], for which the IC50 in [1] is 176 ± 2.12 µM; in [2], 209 ± 2.43 µM; in test [3], 188 ± 2.31 µM.

Take `N.N.[Cl][Pt][Cl]` [Cisplatin, cisplatin, reference compound]: the IC50 in test [1] amounted to 6.02 ± 1.59 µM; in test [2], 7.99 ± 2.38 µM; in [3], 6.41 ± 1.54 µM.

For `Cc1ccc(NC(=O)Cn2cnc3sc(-c4nc(-c5ccccc5)no4)c(C)c3c2=O)cc1Cl` [Compound F34], the IC50 in [1] came to 145 ± 2.06 µM; in test [2], 131 ± 2.3 µM; in test [3], 175.5 ± 1.66 µM.

In the case of `O=S(=O)(c1cccc(NCc2cccc3ccccc23)c1)N1CCOCC1` [Compound Z21], the values for the IC50 in test [1], in [2] and in test [3] were 231 ± 2.35 µM, 250.2 ± 2.34 µM and 246 ± 1.93 µM, respectively.

`O=C(CCn1[nH]c(=O)c2ccccc2c1=O)N1CCCC1c1ccc2c(c1)OCCO2` (stereo not shown) [Compound Z88]: the values for the IC50 in test [1], in test [2] and in test [3] were 218.7 ± 2.04 µM, 204.8 ± 1.78 µM and 222.1 ± 1.68 µM, respectively.

Regarding `O=C(Nc1ccc(Cl)c(S(=O)(=O)N2CCOCC2)c1)c1cccc2ccccc12` [N-(4-chloro-3-(morpholinosulfonyl)phenyl)-1-naphthamide], the IC50 entry at cannabinoid CB1 receptor was “nanomolar range”.

For the compound `COc1cc2nccc(Oc3ccc(NC(=O)C4(C(=O)Nc5ccc(F)cc5)CC4)cc3)c2cc1OC` [cabozantinib], the IC50 in test [4] was less than 0.015 µM.

For `Cc1nc(Nc2ncc(C(=O)Nc3c(C)cccc3Cl)s2)cc(N2CCN(CCO)CC2)n1` [dasatinib], in test [5], the IC50 was less than 0.01 µM.

Turning to `Cc1cn(-c2cc(NC(=O)c3ccc(C)c(Nc4nccc(-c5cccnc5)n4)c3)cc(C(F)(F)F)c2)cn1` [nilotinib], the IC50 in test [6] was […].

For `Cc1ccc(Nc2nccc(N(C)c3ccc4c(C)n(C)nc4c3)n2)cc1S(N)(=O)=O` [pazopanib], the IC50 with PDGFR, VEGFR is […].

As for `CNC(=O)c1cc(Oc2ccc(NC(=O)Nc3ccc(Cl)c(C(F)(F)F)c3)c(F)c2)ccn1` [regorafenib], in test [7], the IC50 is […].

For `COc1cc2c(Nc3ccc(Br)cc3F)ncnc2cc1OCC1CCN(C)CC1` [vandetanib], the IC50 in [8] was […].
